Source: patent US9173893B2, “Purine nucleoside monophosphate prodrugs for treatment of cancer and viral infections” (Cocrystal Pharma, Inc., priority 2009, dated 2015)
Entries after “also recorded” stand apart in the source; their conditions may differ. Like-named read-outs stand apart in the source and are kept apart here. Values belong to the compound of their own block, whether it stands above or below them.

Columns and labels:
[1] = test system: MT-2 cells; assay: Analysis of intracellular nucleotides formed in MT-2 cells; assay type: in vitro ADME
[2] = test system: human peripheral blood mononuclear (PBM) cells; assay: LC/MS analysis of nucleotides formed after incubation in PBM cells; assay type: in vitro ADME; conditions: for nucleosides/nucleotides detected by LC/MS / species not detected by LC/MS: 50 μM
[3] = test system: adenosine deaminase; assay: Adenosine deaminase assay (deamination of nucleosides); assay type: in vitro ADME
Description: To determine the propensity for deamination of the 6-substituted-2-amino purine nucleoside monophosphate prodrugs by adenosine deaminase, nucleoside compounds were incubated with the commercially available purified enzyme, and the reaction was followed spectrophotometrically. Reaction conditions were 50 mM potassium phosphate, pH 7.4, with 50 μM nucleoside analog in 0.5 mL at 25° C. Reaction time was 7 minutes with 0.002 units of enzyme and 120 minutes with 0.2 units of enzyme. (The unit definition of adenosine deaminase is one unit will deaminate 1.0 μmol of adenosine to inosine per minute at pH 7.5 at 25° C.) Deoxyadenosine was the positive control which was 59% deaminated under the given conditions in 7 minutes with 0.002 units of enzyme. Deoxyguanosine was the negative control. Optical density was measured at 265 nm or 285 nm. The difference in optical density between the beginning and the end of the experiment was divided by the extinction coefficient then multiplied by the volume of the reaction to determine the number of mols of substrate transformed into product. Mols of product were divided by mols of substrate equivalent to a 100% complete reaction then multiplied by 100 to obtain percent deamination. The limit of detection was 0.001 optical density units.

[4] = test system: CEM cells; conditions: previous study; cited from earlier work
[5] = test system: HIV-1LAI; assay: Anti-HIV (in PBM cells) assay; assay type: cell-based; conditions: Human immunodeficiency virus 1, PBMC; for EC50: read-out: HIV EC50; for EC90: read-out: HIV EC90
Description: Stock solutions (20-40 mM) of the compounds were prepared in sterile DMSO and then diluted to the desired concentration in growth medium. Cells were infected with the prototype HIV-1LAI at a multiplicity of infection of 0.01. Virus obtained from the cell supernatant was quantified on day 6 after infection by a reverse transcriptase assay using (rA)n·(dT)12-18 as template-primer. The DMSO present in the diluted solution (<0.1%) had no effect on the virus yield. AZT was included as positive control.

[6] = test system: CEM (human lymphoblastoid) cells; assay: Cytotoxicity assay in CEM cells; conditions: Lymphoblastoid cell, read-out: CEM IC50
[7] = test system: Vero cells; assay: Cytotoxicity assay in Vero cells; conditions: Chlorocebus sabaeus, read-out: Vero IC50
[8] = test system: human PBM cells; assay: Cytotoxicity assay in PBM cells
[9] = test system: PHA-stimulated human PBMCs; conditions: cited from earlier work
[10] = test system: HepG2 cells; conditions: HepG2 cells incubated with 10 μM; cited from earlier work
[11] = 50 μM nucleoside analog, 50 mM potassium phosphate pH 7.4, 25° C.
[12] = human PBM cells, RS-788 n = 3, RS-864 n = 2

nucleosides/nucleotides detected by LC/MS ([2]; human, 4 h): RFS-457-DP and RFS-457-TP
SMILES: C=CCNc1nc(N)nc2c1ncn2[C@H]1CC(N=[N+]=[N-])[C@@H](CO)O1 (stereo partly shown) [Compound 62]
species not detected by LC/MS ([2]; human, 4 h): No RFS-427, RFS-427-MP, RFS-427-DP, or RFS-427-TP were detected

Conversion to the G analog by / stability to adenosine deaminase ([3]; under the conditions tested): stable to adenosine deaminase
SMILES: CN(C)c1nc(N)nc2c1ncn2[C@H]1CC(N=[N+]=[N-])[C@@H](CO)O1 (stereo partly shown) [Compound 69]

nucleosides/nucleotides detected by LC/MS ([2]; human, 4 h): RFS-506-DP, RFS-457-DP, and RFS-457-TP
SMILES: COc1nc(N)nc2c1ncn2[C@H]1CC(N=[N+]=[N-])[C@@H](CO)O1 (stereo partly shown) [Compound 70]
species not detected by LC/MS ([2]; human, 4 h): No RFS-506, RFS-506-MP, or RFS-506-TP were detected

nucleosides/nucleotides detected by LC/MS ([2]; human, 4 h): RFS-457-DP and RFS-457-TP
SMILES: [N-]=[N+]=NC1C[C@H](n2cnc3c(NC4CC4)nc(N)nc32)O[C@@H]1CO (stereo partly shown) [Compound 72]
species not detected by LC/MS ([2]; human, 4 h): No RFS-512, RFS-512-MP, RFS-512-DP, or RFS-512-TP were detected

level of unchanged drug detected ([1]; MT-2 cells treated with drug for 30 min): Negligible levels of 6415 | nucleosides/nucleotides detected ([1]; MT-2 cells, 50 μM, 4 hr): converted to AZG and AZG-TP | AZG-TP levels compared with AZG treatment ([1]; MT-2 cells, 4 hr at 50 μM): higher | AZG-TP levels compared with AZG treatment ([2]; PBM cells, 4 hr at 50 μM): higher | nucleosides/nucleotides detected by LC/MS ([2]; human, 4 h): RFS-457-TP | Deamination in 7 min (0.002 units Adenosine Deaminase) [3, 11]: 12.81 ± 1.57% | Deamination in 120 min (0.2 units Adenosine Deaminase) [3, 11]: 240.53 ± 5.86%
SMILES: [N-]=[N+]=NC1C[C@H](n2cnc3c(Cl)nc(N)nc32)O[C@@H]1CO (stereo partly shown) [Compound 6415]
species not detected by LC/MS ([2]; human, 4 h): Neither Compound 6415 nor its phosphates were detected

The next lines start with the compound.

SMILES: [N-]=[N+]=N[C@H]1C[C@H](n2cnc3c(=O)[nH]c(N)nc32)O[C@@H]1CO [AZG]
concentration at which phosphorylation reaches steady state ([1]; MT-2, four different concentrations): 30 µM

SMILES: Nc1nc(N)c2ncn([C@H]3CO[C@@H](CO)O3)c2n1 [DAPD, (−)-β-D-2,6-diaminopurine dioxolane, reference compound]
intracellular metabolism [4]: readily deaminate to (−)-D-dioxolane guanine (DXG); also recorded: No phosphorylation of DAPD to the corresponding mono-, di-, or triphosphate forms was detected | EC50 [5, 12]: 1 µM | EC90 [5, 12]: 6.5 µM | IC50 [6]: > 100 µM | IC50 [7]: > 100 µM | IC50 ([8]; Homo sapiens, PBMC, read-out: PBM IC50): > 100 µM | DAPD levels in PBMCs relative to CEM cells ([9]; Antimicrob. Agents Chemother. 2001, 45, 158-165): 27 fold | intracellular metabolism ([9]; PHA-stimulated human PBMCs, previous study): readily deaminate to (−)-D-dioxolane guanine (DXG); also recorded: No phosphorylation of DAPD to the corresponding mono-, di-, or triphosphate forms was detected

SMILES: CCOC(=O)[C@H](C)NP(=O)(OC[C@@H]1OC[C@H](n2cnc3c(N)nc(N)nc32)O1)Oc1ccccc1 (stereo partly shown) [RS-864]
EC50 [5]: 0.24 µM | EC90 [5]: 1.3 µM | IC50 [6]: > 100 µM | nucleosides/nucleotides detected by LC/MS ([2]; PBM cells, 4 hr incubation): low levels of DXG, DXG-MP, and DXG-TP; also recorded: very high levels of DAPD-TP; also recorded: low levels of DAPD, DAPD-MP, DAPD-DP | IC50 [7]: > 100 µM | PBM IC50 printed as percent at a single concentration ([8]; @ 100 μM): 66.5% @ 100 μM

SMILES: O=c1[nH]c(=O)n([C@@H]2O[C@H](CO)[C@@H](O)[C@@H]2F)cc1I [fialuridine, 1,2′-deoxy-2′-fluoro-1-D-arabinofuranosly-5-iodo-uracil]
mitochondrial morphology in electron micrographs [10]: enlarged mitochondria with morphological changes consistent with mitochondrial dysfunction
